Reference: PubChem BioAssay (NCI)
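Test compounds were applied to cells in 96-well plates for 48 hours at 5 doses. TGI marks complete inhibition of growth.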

What was measured:
Experiment in all cases: NCI anticancer screen, dose series, 48 h
[1] = tested on: ACHN renal
[2] = tested on: HL-60(TB) leukemia
[3] = tested on: OVCAR-5 ovarian
[4] = tested on: KM20L2 colon
[5] = tested on: A498 renal
[6] = tested on: RXF 393 renal
[7] = tested on: A549 NSCLC
[8] = tested on: RXF-631 renal
[9] = tested on: SNB-78 CNS
[10] = tested on: DMS 273 small cell lung
[11] = tested on: SF-295 CNS
[12] = tested on: SK-OV-3 ovarian
[13] = tested on: HCT-116 colon
[14] = tested on: TK-10 renal
[15] = tested on: M19-MEL melanoma
[16] = tested on: OVCAR-8 ovarian
[17] = tested on: OVCAR-4 ovarian
[18] = tested on: OVCAR-3 ovarian
[19] = tested on: HOP-18 NSCLC
[20] = tested on: RPMI-8226 leukemia
[21] = tested on: SK-MEL-5 melanoma
[22] = tested on: HT29 colon
[23] = tested on: DMS 114 small cell lung
[24] = tested on: HOP-62 NSCLC
[25] = tested on: NCI-H460 lung
[26] = tested on: HCT-15 colon
[27] = tested on: NCI-H226 lung
[28] = tested on: XF 498 CNS
[29] = tested on: SW-620 colon
[30] = tested on: UO-31 renal
[31] = tested on: COLO 205 colon
[32] = tested on: NCI-H522 lung
[33] = tested on: CAKI-1 renal
[34] = tested on: IGROV1 ovarian
[35] = tested on: SNB-19 CNS
[36] = tested on: K-562 leukemia
[37] = tested on: SNB-75 CNS
[38] = tested on: SF-539 CNS
[39] = tested on: CCRF-CEM leukemia
[40] = tested on: MOLT-4 leukemia
[41] = tested on: MALME-3M melanoma
[42] = tested on: HCC-2998 colon
[43] = tested on: SK-MEL-2 melanoma
[44] = tested on: M14 melanoma
[45] = tested on: UACC-62 melanoma
[46] = tested on: NCI-H23 lung
[47] = tested on: 786-0 renal
[48] = tested on: UACC-257 melanoma
[49] = tested on: U251 CNS
[50] = tested on: KM12 colon
[51] = tested on: LXFL 529 NSCLC
[52] = tested on: SN12C renal
[53] = tested on: SF-268 CNS
[54] = tested on: LOX IMVI melanoma
[55] = tested on: DLD-1 colon
[56] = tested on: SK-MEL-28 melanoma
[57] = tested on: HOP-92 NSCLC
[58] = tested on: EKVX NSCLC

SMILES: COC(=O)C1=CC2OC13CC1CCC3(C2=O)C1(C)C (stereo not given)
- TGI [1]: 21.2 µM
- TGI [2]: 23.1 µM
- TGI [3]: 33.2 µM
- TGI [4]: 27.1 µM
- TGI [5]: 49 µM
- TGI [6]: 25.8 µM
- TGI [7]: 92.7 µM
- TGI [8]: 28 µM
- TGI [9]: 36.5 µM
- TGI [10]: 24.6 µM
- TGI [11]: 40.5 µM
- TGI [12]: 38.1 µM
- TGI [13]: 23.5 µM
- TGI [14]: 22.6 µM
- TGI [15]: 24.5 µM
- TGI [16]: 23.8 µM
- TGI [17]: 23.3 µM
- TGI [18]: 20 µM
- TGI [19]: 24 µM
- TGI [20]: 38.6 µM
- TGI [21]: 30.7 µM
- TGI [22]: 27.7 µM
- TGI [23]: 20.3 µM
- TGI [24]: 48.1 µM
- TGI [25]: > 100 µM
- TGI [26]: 18.9 µM
- TGI [27]: 34.2 µM
- TGI [28]: 13.4 µM
- TGI [29]: 19.4 µM
- TGI [30]: 19.1 µM
- TGI [31]: 29.8 µM
- TGI [32]: 9.37 µM
- TGI [33]: 7.37 µM
- TGI [34]: 39.9 µM
- TGI [35]: 52.3 µM
- TGI [36]: 56.4 µM
- TGI [37]: 19.9 µM
- TGI [38]: 27.3 µM
- TGI [39]: 14.6 µM
- TGI [40]: 33.7 µM
- TGI [41]: 28.5 µM
- TGI [42]: 27.8 µM
- TGI [43]: 28.7 µM
- TGI [44]: 28.3 µM
- TGI [45]: 30.6 µM
- TGI [46]: 32.1 µM
- TGI [47]: 30.7 µM
- TGI [48]: 24.1 µM
- TGI [49]: 25.6 µM
- TGI [50]: 30.6 µM
- TGI [51]: 16.7 µM
- TGI [52]: 26.4 µM
- TGI [53]: 23.2 µM

SMILES: COc1ccc(/C(Cl)=C(\C=O)c2ccc(Cl)c(Cl)c2)cc1OC
- TGI [1]: 18.2 µM
- TGI [2]: 6.67 µM
- TGI [4]: 18.8 µM
- TGI [54]: 13.6 µM
- TGI [5]: 30.4 µM
- TGI [8]: 16.6 µM
- TGI [9]: 31.2 µM
- TGI [10]: 21.7 µM
- TGI [11]: 15.9 µM
- TGI [12]: 75.4 µM
- TGI [13]: 15.2 µM
- TGI [14]: 51.4 µM
- TGI [15]: 23 µM
- TGI [16]: 57.7 µM
- TGI [18]: 26.3 µM
- TGI [20]: 5.5 µM
- TGI [55]: 20.3 µM
- TGI [21]: 26.6 µM
- TGI [22]: 8.77 µM
- TGI [23]: 33.9 µM
- TGI [24]: 31.7 µM
- TGI [25]: 12.4 µM
- TGI [26]: 20.7 µM
- TGI [27]: 18.6 µM
- TGI [28]: 7.95 µM
- TGI [29]: 16.3 µM
- TGI [56]: 28 µM
- TGI [30]: 20.7 µM
- TGI [31]: 33.7 µM
- TGI [32]: 6.53 µM
- TGI [33]: 18.8 µM
- TGI [35]: 65.9 µM
- TGI [36]: > 100 µM
- TGI [37]: 0.938 µM
- TGI [38]: 19.2 µM
- TGI [39]: 8.72 µM
- TGI [57]: 13.8 µM
- TGI [40]: 5.76 µM
- TGI [41]: 42.5 µM
- TGI [58]: 30.6 µM
- TGI [43]: 15 µM
- TGI [44]: 26.3 µM
- TGI [45]: 24.2 µM
- TGI [49]: 15 µM
- TGI [51]: 13.7 µM
- TGI [52]: 18.7 µM
- TGI [53]: 18.5 µM

SMILES: O=C1c2ccccc2C(=O)c2nc(-c3ccccc3)c(-c3ccccc3)nc21
- TGI [1]: > 100 µM
- TGI [3]: > 100 µM
- TGI [4]: > 100 µM
- TGI [54]: > 56.1 µM
- TGI [5]: > 93.6 µM
- TGI [6]: > 100 µM
- TGI [7]: > 84.2 µM
- TGI [8]: > 100 µM
- TGI [9]: > 100 µM
- TGI [10]: > 100 µM
- TGI [11]: > 100 µM
- TGI [12]: > 100 µM
- TGI [13]: > 100 µM
- TGI [14]: > 100 µM
- TGI [15]: 2.02 µM
- TGI [16]: > 100 µM
- TGI [17]: > 66.9 µM
- TGI [18]: 13.2 µM
- TGI [19]: > 100 µM
- TGI [20]: > 100 µM
- TGI [55]: > 100 µM
- TGI [21]: 8.2 µM
- TGI [22]: > 100 µM
- TGI [23]: > 100 µM
- TGI [24]: > 100 µM
- TGI [25]: > 100 µM
- TGI [26]: > 100 µM
- TGI [27]: > 31.6 µM
- TGI [28]: > 100 µM
- TGI [29]: > 100 µM
- TGI [56]: > 100 µM
- TGI [30]: > 100 µM
- TGI [31]: > 100 µM
- TGI [32]: > 100 µM
- TGI [33]: > 100 µM
- TGI [35]: > 100 µM
- TGI [36]: > 100 µM
- TGI [37]: 29.2 µM
- TGI [38]: > 100 µM
- TGI [39]: > 100 µM
- TGI [57]: > 100 µM
- TGI [40]: > 100 µM
- TGI [41]: > 100 µM
- TGI [58]: > 100 µM
- TGI [42]: > 100 µM
- TGI [43]: > 100 µM
- TGI [44]: > 100 µM
- TGI [45]: > 100 µM
- TGI [46]: > 100 µM
- TGI [47]: > 100 µM
- TGI [49]: > 100 µM
- TGI [50]: > 100 µM
- TGI [51]: > 100 µM
- TGI [52]: > 100 µM
- TGI [53]: > 100 µM
